# Experimental data published in patent US20110230472A1, “RING-FUSED AZOLE DERIVATIVE HAVING PI3K-INHIBITING ACTIVITY” (Shionogi & Co., Ltd., priority 2008, published 2011).
# Tests used:
# [1] = Metabolic stability test; assay type: in vitro ADME; details: human liver microsome 0.5 mg protein/mL, 1 mmol/L NADPH, 37° C.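 Also: 100% equals the compound amount at 0 min reaction.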
# Method: After a subject compound was reacted for a certain time using a pooled human liver microsome commercially available, a reacted sample and an unreacted sample are compared to calculate a survival ratio, and then the degree of metabolism in the liver was evaluated.
# 0.2 mL of a buffer solution (50 mmol/L of Tris-HCl in pH 7.4, 150 mmol/L of potassium chloride, and 10 mmol/L of magnesium chloride) containing a human liver microsome of 0.5 mg protein/mL was reacted in the presence of 1 mmol/L NADPH at 37° C. for 0 or 30 minutes (oxidative reaction). After reacting, 50 μL of the reaction solution was added to 100 μL of a solution of methanol/acetonitrile (1/1 (v/v)), mixed, and then centrifuged at 3000 rpm for 15 minutes. The test compound in the supernatant was quantitated with LC/MS/MS. The amount of the compound at a reaction time of 0 minute was defined as 100% and, based on that, the percentage of the test compound remained after reacting for 30 minutes was calculated.
# [2] = target: T1, CYP1A2 (Homo sapiens, UniProt P05177); assay: CYP inhibition test, pooled human liver microsome, CYP1A2; assay type: in vitro ADME; details: O-de-ethylation of 7-ethoxyresorufin
# T1 construct: enzyme: pooled human liver microsome 0.2 mg protein/mL; from tissue; host or cells: pooled human liver microsome
# T1 sequence (P05177 1-516): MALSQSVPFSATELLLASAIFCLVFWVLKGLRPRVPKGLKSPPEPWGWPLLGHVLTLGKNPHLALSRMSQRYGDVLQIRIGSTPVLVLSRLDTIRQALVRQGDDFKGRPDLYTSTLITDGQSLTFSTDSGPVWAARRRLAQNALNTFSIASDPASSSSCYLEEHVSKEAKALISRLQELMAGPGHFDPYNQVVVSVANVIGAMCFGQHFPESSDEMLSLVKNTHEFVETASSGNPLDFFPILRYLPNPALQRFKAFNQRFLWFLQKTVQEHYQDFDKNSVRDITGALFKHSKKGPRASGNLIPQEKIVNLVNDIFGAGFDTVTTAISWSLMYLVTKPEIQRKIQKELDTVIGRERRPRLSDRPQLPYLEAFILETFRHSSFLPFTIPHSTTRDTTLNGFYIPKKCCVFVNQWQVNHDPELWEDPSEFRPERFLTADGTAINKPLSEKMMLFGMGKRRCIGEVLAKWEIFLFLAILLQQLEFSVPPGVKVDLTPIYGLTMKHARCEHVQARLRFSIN
# Excerpt: (§1) O-de-ethylation of 7-ethoxyresorufin (CYP1A2), methyl-hydroxylation of tolbutamide (CYP2C9), 4′-hydroxylation of mephenyloin (CYP2C19), O-demethylation of dextromethorphan (CYP2D6), and hydroxylation of terfenadine (CYP3A4), which are typical substrate for metabolic reactions of human main CYP5 molecular species (CYP1A2, 2C9, 2C19, 2D6, and 3A4), were adopted as indexes.
# (§2) The reaction conditions are as follows: substrate: 0.5 μmol/L of ethoxyresorufin (CYP1A2), 100 μmol/L of tolbutamide (CYP2C9), […] of S-mephenyloin (CYP2C19), 5 μmol/L of dextromethorphan (CYP2D6), and 1 μmol/L of terfenadine (CYP3A4); reaction time; 15 minutes; reaction temperature: 37° C.; enzyme: pooled human liver microsome 0.2 mg protein/mL; test drug concentration: 1, 5, 10, and 20 μmol/L (4 points).
# (§3) In a 96-well plate, as a reaction solution, five kinds of substrates, a human liver microsome, and a test drug were added to 50 mmol/L Hepes buffer solution in the aforementioned ratio. A coenzyme NADPH was added to start a metabolic reaction, which is an index. After reacting at 37° C. for 15 minutes, a solution of methanol/acetonitrile (1/1 (v/v)) was added to quench the reaction. After centrifugation at 3000 rpm for 15 minutes, resorufin (CYP1A2 metabolite) in the supernatant was quantitated with a fluorescence multilabel counter, and hydroxylated tolbutamide (CYP2C9 metabolite), 4′-hydroxylated mephenyloin (CYP2C19 metabolite), […], terfenadine in alcohol form (CYP3A4 metabolite) were quantitated with LC/MS/MS.
# (§4) The case wherein only DMSO (a solvent which dissolved a drug) was added to a reaction system was defined as a control (100%). When a test drug solution was added, the remaining activity (%) at each concentration was calculated, and then IC50 was calculated with a concentration and an inhibition ratio by an inverse estimation using a logistic model.
# [3] = Solubility test; assay type: physicochemical; details: kinetic from dmso stock; artificial intestinal juice pH 6.8, 1% DMSO, 25° C. for 16 hours
# Method: The solubility of a compound was determined under a condition in which 1% DMSO was added. 10 mmol/L compound solution was prepared using DMSO, and then 6 μL of the compound solution was added to 594 μL of artificial intestinal juice in pH 6.8 (to 250 mL of 0.2 mol/L potassium dihydrogen phosphate reagent solution was added 118 mL of 0.2 mol/L NaOH reagent solution and water to provide a final volume of 1000 mL). After standing at 25° C. for 16 hours, the mixed solution was filtered with suction. The filtrate was diluted twice with methanol/water (1/1), and then a concentration in the filtration was measured with HPLC or LC/MS/MS by the absolute calibration method.
# [4] = target: PI-3 kinase γ (Homo sapiens, UniProt P48736); assay: PI3Kγ inhibitory activity, PI3-kinase HTRF assay (inhibition ratio); assay type: biochemical; details: 0.5 h; for inhibition at 10 µM: compound at 10 μmol/L; for inhibition at 50 µM: PI3Kγ, compound at 50 μM
# Procedure, shortened: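 Single-concentration inhibition ratio (50 or 10 μmol/L compound) versus no-compound (100%) and no-enzyme (0%) wells. Reaction: PI-3 kinase γ, PIP2, ATP, MgCl2/DTT, 30 min at RT after 10 min preincubation. Read-out: HTRF 665/620 nm after 18 h detection.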
# [5] = target: T2, CYP2C19 (Homo sapiens, UniProt P33261); assay: CYP inhibition test, pooled human liver microsome, CYP2C19; assay type: in vitro ADME; details: 4′-hydroxylation of mephenyloin
# T2 construct: enzyme: pooled human liver microsome 0.2 mg protein/mL; from tissue; host or cells: pooled human liver microsome
# Excerpt: as §1, §2, §3, §4
# [6] = target: T3, CYP3A4 (Homo sapiens, UniProt P08684); assay: CYP inhibition test, pooled human liver microsome, CYP3A4; assay type: in vitro ADME; details: hydroxylation of terfenadine
# T3 construct: enzyme: pooled human liver microsome 0.2 mg protein/mL; from tissue; host or cells: pooled human liver microsome
# Excerpt: as §1, §2, §3, §4
# [7] = target: T4, CYP2D6 (Homo sapiens, UniProt P10635); assay: CYP inhibition test, pooled human liver microsome, CYP2D6; assay type: in vitro ADME; details: O-demethylation of dextromethorphan
# T4 construct: enzyme: pooled human liver microsome 0.2 mg protein/mL; from tissue; host or cells: pooled human liver microsome
# Excerpt: as §1, §2, §3, §4
# [8] = target: T5, CYP2C9 (Homo sapiens, UniProt P11712); assay: CYP inhibition test, pooled human liver microsome, CYP2C9; assay type: in vitro ADME; details: methyl-hydroxylation of tolbutamide
# T5 construct: enzyme: pooled human liver microsome 0.2 mg protein/mL; from tissue; host or cells: pooled human liver microsome
# Excerpt: as §1, §2, §3, §4
# [9] = tested on: AKT phosphorylation in human monocyte-like cell line THP-1; assay: AKT phosphorylation inhibitory activity in MCP-1-stimulated THP-1 cells (ELISA); assay type: cell-based; details: 1 μmol/L solution of each compound, MCP-1 stimulation, read-out: AKT phosphorylation inhibition ratio
# Method: (1) The AKT phosphorylation inhibitory activity of a compound was evaluated according to the following procedure. (2) Human monocyte-like cell line THP-1 was washed with RPMI-1640 media, incubated in the presence of 5% CO2 at 37° C. for 3 hours, washed with Hank's balanced salt solution (HBSS), adjusted to a cell concentration of 6.6×10^6/mL, and then used in an experiment. (3) 30 μL of the cell suspension and 60 μL of each compound solution containing 0.2% DMSO/HBSS were mixed and then preincubated at 37° C. for 5 minutes. 30 μL of HBSS containing 4 μg/mL of MCP-1 was added thereto and then incubated for 30 seconds at 37° C. (4) 30 μl of a cell lysate (20 mmol/L Tris-HCl (pH 7.5), 150 mmol/L NaCl, 1 mmol/L Na2EDTA, 1 mmol/L EGTA, 1% Triton, 2.5 mmol/L sodium pyrophosphate, 1 mmol/L β-glycerophosphate, 1 mmol/L Na3VO4, 1 μg/ml leupeptin, 50 nmol/L APMSF) was added thereto to lyse cells. (5) The amount of AKT phosphorylation in the cell lysate was measured by ELISA method. (6) Anti-phospho-Akt (Ser473) antibodies (clone 193H12, derived from a rabbit) were immobilized onto the solid phase of a micro well plate. 100 μL of the prepared cell lysate was added to the micro well plate, incubated for 2 hours at 37° C., and then washed four times with Phosphate Buffered Saline containing 0.05% Tween-20. (7) An anti-AKT1 antibody (clone 2H10, derived from a mouse) was added thereto, incubated for 1 hour at 37° C., washed similarly, and then reacted with an HRP-labeled anti-mouse IgG antibody. (8) After incubating at 37° C. for 30 minutes and then washing similarly, 100 μL of TMB (3,3′,5,5″-tetramethylbenzidine) was added thereto, followed by reacting at room temperature for 30 minutes. (9) 100 μL of 1 mol/L sulfuric acid was added to quench the color reaction and then the absorbance at 450 nm was measured. (10) A series of diluted cell lysates of a positive control (a sample in the absence of a compound) were used to prepare a calibration curve, the amount of AKT phosphorylation in a sample in the absence of MCP-1 was defined as 0% activity to calculate an inhibition ratio. The measurement was performed for a 1 μmol/L solution of each compound.
# T5 sequence (P11712 whole entry): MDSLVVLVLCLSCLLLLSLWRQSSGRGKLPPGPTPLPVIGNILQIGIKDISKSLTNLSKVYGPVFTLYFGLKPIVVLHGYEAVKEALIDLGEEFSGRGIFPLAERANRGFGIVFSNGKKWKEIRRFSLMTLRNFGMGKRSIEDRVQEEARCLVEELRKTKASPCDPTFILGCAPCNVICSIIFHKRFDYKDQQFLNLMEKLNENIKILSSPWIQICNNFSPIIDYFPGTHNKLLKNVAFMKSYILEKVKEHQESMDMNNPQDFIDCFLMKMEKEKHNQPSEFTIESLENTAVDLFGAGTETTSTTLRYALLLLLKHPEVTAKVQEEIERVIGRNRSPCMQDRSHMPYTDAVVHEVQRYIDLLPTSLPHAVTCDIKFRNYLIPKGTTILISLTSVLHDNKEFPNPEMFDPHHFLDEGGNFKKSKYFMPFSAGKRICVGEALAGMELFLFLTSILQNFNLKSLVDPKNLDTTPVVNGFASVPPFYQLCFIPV
# T2 sequence (P33261 whole entry): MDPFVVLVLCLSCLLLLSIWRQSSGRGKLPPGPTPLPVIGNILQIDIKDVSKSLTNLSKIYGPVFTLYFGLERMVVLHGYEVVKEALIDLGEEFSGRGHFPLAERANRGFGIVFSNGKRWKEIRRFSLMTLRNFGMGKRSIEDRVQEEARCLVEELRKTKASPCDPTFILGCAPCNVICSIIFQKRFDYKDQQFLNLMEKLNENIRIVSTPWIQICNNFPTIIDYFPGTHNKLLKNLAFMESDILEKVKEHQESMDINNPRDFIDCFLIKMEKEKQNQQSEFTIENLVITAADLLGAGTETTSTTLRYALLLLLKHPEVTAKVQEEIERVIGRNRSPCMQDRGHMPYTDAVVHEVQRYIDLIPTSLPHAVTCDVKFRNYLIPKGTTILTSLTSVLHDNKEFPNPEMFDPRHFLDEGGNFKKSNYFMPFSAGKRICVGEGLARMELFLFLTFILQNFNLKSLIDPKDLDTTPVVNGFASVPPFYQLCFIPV
# Sequence of PI-3 kinase γ (P48736 whole entry): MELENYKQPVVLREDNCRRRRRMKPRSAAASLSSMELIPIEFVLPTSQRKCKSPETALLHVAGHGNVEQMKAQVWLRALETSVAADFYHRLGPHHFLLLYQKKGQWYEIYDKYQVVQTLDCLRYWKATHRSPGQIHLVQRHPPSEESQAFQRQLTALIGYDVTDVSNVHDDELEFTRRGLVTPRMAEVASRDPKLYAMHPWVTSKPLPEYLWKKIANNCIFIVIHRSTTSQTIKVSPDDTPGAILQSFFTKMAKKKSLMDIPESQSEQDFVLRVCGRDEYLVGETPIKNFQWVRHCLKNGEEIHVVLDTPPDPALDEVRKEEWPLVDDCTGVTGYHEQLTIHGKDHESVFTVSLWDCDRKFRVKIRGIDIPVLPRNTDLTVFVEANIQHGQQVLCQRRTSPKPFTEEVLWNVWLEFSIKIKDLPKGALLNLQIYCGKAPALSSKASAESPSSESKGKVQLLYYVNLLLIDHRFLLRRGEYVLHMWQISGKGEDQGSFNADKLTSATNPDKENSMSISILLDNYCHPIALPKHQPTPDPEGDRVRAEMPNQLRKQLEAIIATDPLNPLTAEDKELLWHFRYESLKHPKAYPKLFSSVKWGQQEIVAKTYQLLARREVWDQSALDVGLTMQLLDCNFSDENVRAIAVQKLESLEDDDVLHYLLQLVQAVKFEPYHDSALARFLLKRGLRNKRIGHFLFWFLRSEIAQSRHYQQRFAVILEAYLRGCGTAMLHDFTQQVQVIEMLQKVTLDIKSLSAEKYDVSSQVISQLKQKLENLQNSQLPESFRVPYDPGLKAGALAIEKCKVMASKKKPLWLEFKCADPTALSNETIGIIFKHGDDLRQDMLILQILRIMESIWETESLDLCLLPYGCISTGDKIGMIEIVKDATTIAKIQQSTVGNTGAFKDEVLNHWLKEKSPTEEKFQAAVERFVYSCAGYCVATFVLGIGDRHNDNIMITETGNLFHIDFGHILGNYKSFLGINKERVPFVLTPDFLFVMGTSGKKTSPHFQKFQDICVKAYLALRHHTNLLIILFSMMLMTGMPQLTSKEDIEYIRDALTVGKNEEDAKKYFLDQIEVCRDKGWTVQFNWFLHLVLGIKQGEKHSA
# T3 sequence (P08684 whole entry): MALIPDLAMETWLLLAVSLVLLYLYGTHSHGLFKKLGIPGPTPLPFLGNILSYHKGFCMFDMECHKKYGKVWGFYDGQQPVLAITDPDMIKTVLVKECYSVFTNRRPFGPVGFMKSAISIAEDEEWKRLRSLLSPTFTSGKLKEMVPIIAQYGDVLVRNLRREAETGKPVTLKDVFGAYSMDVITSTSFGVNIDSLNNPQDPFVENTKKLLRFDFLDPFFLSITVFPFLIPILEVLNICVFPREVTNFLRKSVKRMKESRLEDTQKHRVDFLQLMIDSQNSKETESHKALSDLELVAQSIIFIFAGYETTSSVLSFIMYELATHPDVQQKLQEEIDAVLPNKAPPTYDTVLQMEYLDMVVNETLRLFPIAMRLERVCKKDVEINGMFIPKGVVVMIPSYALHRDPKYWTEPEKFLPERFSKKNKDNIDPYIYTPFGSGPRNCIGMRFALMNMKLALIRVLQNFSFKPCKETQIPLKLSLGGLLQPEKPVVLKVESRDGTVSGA
# T4 sequence (P10635 whole entry): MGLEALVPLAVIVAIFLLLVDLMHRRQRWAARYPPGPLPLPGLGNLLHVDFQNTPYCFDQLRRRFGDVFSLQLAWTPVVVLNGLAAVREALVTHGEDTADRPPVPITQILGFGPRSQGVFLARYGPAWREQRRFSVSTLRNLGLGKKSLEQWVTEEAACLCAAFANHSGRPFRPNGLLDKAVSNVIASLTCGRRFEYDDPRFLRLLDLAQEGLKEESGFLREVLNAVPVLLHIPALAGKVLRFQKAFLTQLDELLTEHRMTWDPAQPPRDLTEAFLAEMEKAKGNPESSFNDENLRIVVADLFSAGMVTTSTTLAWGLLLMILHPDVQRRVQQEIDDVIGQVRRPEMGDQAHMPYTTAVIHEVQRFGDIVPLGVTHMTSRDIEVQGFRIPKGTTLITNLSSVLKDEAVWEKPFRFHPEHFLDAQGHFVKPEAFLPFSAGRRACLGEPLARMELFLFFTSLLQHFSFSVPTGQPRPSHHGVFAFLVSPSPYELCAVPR
SMILES,percentage of the test compound remained after reacting for 30 minutes [1] [%],IC50 [2] [µM],solubility at 16 h [3] [µM],inhibition at 10 µM [4] [%],IC50 [5] [µM],IC50 [6] [µM],IC50 [7] [µM],IC50 [8] [µM],inhibition [9] [%],inhibition at 50 µM [4] [%]
COc1nc(OC)nc(N2CCc3nc(NC(C)=O)sc3C2)n1 [Compound I-330],99,> 20,> 50,83,> 20,> 20,> 20,> 20,,
COc1cc(N2CCc3nc(NC(=O)NCCC(=O)N4CCCC4)sc3C2)nc(OC)n1 [Compound I-308],92.2,,,≥ 95,,,,,98.4,
CNC(=O)Nc1cc2n(n1)CCN2c1ccc2ncccc2c1 [Compound I-177],,,> 50,,,,,,> 99.5,≥ 95
CNC(=O)Nc1cc2n(n1)CCN2c1ccc2cnccc2c1 [Compound I-190],90.5,,,,,,,,> 99.5,≥ 95
CN1CCc2cc(N3CCn4nc(NC(=O)c5ccsc5)cc43)ccc2C1=O [Compound I-332],87.2,,,≥ 95,,,,,96,
CN(C)C(=O)CCC(=O)Nc1cc2n(n1)CCN2c1cccc(Cl)c1 [Compound I-234],98.3,> 20,,,> 20,> 20,> 20,> 20,,≥ 95
CC(=O)Nc1cc2n(n1)CCN2c1ccc2c(c1)CCC(=O)N2C [Compound I-340],98.3,> 20,> 50,≥ 95,> 20,> 20,> 20,> 20,,
CNC(=O)Nc1nc2c(s1)CN(c1cncc(OC)n1)CC2 [Compound I-378],,,> 50,≥ 95,,,,,> 99.5,
